Experimental data: US10214512B2, “Factor XIA inhibitors” (MERCK SHARP & DOHME CORP., priority 2015, dated 2019)

Assays:
[1] = target: purified human Factor XIa (Homo sapiens (Human), UniProt P03951); assay: Factor XIa Assay; type: biochemical; conditions: purified human Factor XIa 40 pM; substrate Z-Gly-Pro-Arg-AFC 100 μM; 50 mM HEPES pH 7.4; read-out: Human FXIa Ki
Method in brief: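 Purified human FXIa at 40 pM final with fluorogenic Z-Gly-Pro-Arg-AFC at 100 μM, in 50 mM HEPES pH 7.4, 150 mM NaCl, 5 mM CaCl2, 0.1% PEG 8000, at rt or 37° C. Initial velocities measured after enzyme–inhibitor equilibration; Ki derived from Vo/Vi versus [I] assuming competitive inhibition.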

[2] = target: purified Human plasma Kallikrein (Homo sapiens (Human), UniProt P03952); assay: Kallikrein Assay; type: biochemical; conditions: purified Human plasma Kallikrein 0.5 nM; substrate Acetyl-K-P-R-AFC; 50 mM HEPES pH 7.4; Ki from IC50 by Cheng Prusoff
Method in brief: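 Purified human plasma kallikrein (0.5 nM) with fluorogenic Ac-K-P-R-AFC ([…]) in 50 mM HEPES pH 7.4, 150 mM NaCl, 5 mM CaCl2, 0.1% PEG 8000, at rt or 37 °C. Substrate hydrolysis rate read with and without inhibitor; IC50 from four-parameter logistic fit, converted to Ki by Cheng–Prusoff.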

purified human Factor XIa, sequence (P03951 388-625): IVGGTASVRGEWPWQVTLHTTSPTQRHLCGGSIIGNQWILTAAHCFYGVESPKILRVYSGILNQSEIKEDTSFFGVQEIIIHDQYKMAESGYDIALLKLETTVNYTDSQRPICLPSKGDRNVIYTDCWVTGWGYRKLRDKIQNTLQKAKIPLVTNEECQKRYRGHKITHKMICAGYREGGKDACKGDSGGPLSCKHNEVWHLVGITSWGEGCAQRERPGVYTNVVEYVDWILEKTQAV
purified human Factor XIa, sequence (P03951 19-387 partner): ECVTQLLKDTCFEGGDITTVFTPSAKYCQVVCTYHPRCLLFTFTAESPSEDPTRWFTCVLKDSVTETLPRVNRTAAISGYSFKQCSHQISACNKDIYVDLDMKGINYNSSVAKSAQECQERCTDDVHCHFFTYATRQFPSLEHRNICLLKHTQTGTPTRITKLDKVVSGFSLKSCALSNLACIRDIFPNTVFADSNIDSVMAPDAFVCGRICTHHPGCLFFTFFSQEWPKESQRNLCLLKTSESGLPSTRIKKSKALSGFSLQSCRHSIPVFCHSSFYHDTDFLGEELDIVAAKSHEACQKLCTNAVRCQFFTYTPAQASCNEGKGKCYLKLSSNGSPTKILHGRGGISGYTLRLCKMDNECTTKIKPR
purified Human plasma Kallikrein, sequence (P03952 391-638): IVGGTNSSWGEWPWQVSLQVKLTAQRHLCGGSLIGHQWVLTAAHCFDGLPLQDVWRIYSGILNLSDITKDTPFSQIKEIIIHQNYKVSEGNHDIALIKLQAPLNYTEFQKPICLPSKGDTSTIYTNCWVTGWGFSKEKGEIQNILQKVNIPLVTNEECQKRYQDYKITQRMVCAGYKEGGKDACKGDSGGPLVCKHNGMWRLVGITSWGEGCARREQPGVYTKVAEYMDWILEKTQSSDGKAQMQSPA
purified Human plasma Kallikrein, sequence (P03952 20-390 partner): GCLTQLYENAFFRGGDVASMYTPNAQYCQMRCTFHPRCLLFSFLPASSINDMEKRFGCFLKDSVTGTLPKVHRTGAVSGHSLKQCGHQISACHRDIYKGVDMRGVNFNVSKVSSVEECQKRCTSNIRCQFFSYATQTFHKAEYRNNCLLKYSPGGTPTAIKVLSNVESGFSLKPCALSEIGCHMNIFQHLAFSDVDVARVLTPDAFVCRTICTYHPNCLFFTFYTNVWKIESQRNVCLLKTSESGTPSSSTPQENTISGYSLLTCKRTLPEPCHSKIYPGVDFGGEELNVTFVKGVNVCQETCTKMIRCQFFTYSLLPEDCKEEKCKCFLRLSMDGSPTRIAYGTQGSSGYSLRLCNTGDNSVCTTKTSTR

Row | Structure (SMILES) | Ki [1] | Ki [2]
1 | COC(=O)Nc1ccc2c(c1)NC(=O)CCCC[C@H](c1ccc(-c3cc(Cl)ccc3C#N)c[n+]1[O-])c1cccc-2c1 (single isomer, unassigned) [Example 31] | 0.8 nM | 2.68 nM
2 | COC(=O)Nc1ccc2c(c1)NC(=O)CCCCC(c1ccc(-c3cc(Cl)ccc3-n3cnnn3)cn1)c1cc-2ncn1 (stereo not drawn) [Example 65, methyl (9-(5-(5-chloro-2-(1h-tetrazol-1-yl)phenyl)pyridin-2-yl)-4-oxo-3-aza-1(4,6)-pyrimidina-2(1,2)-benzenacyclononaphane-2^4-yl)carbamate] | 2.9 nM | 6 nM
3 | COC(=O)Nc1cc(F)c2c(c1)NC(=O)C(C)CCCC(c1ccc(-c3c(F)ccc(Cl)c3F)c[n+]1[O-])c1cccc-2c1 (single isomer, unassigned) [Example 85-b, 5-(3-Chloro-2,6-difluorophenyl)-2-(2^6-fluoro-2^4-((methoxycarbonyl)amino)-5-methyl-4-oxo-3-aza-1(1,3),2(1,2)-dibenzenacyclononaphane-9-yl)pyridine 1-oxide] | 6 nM | 15.2 nM
4 | O=C1CCCCC(c2ccc(-c3cc(F)ccc3-n3cc(Cl)nn3)c[n+]2[O-])c2cccc(c2)-c2cc(F)ccc2N1 (single isomer, unassigned) [Example 90-a, 5-(2-(4-Chloro-1H-1,2,3-triazol-1-yl)-5-fluorophenyl)-2-(2^5-fluoro-4-oxo-3-aza-1(1,3),2(1,2)-dinenzenacyclononaphane-9-yl)pyridine 1-oxide] | 3.2 nM | 121 nM
5 | CC(C)(C)OCCOC(=O)Nc1ccc2c(c1)NC(=O)CCCC[C@H](c1ccc(-c3c(F)ccc(Cl)c3F)c[n+]1[O-])c1cccc-2c1 [Example 45, (S)-2-(2^4-(((2-(tert-butoxy)ethoxy)carbonyl)amino)-4-oxo-3-aza-1(1,3),2(1,2)-dinenzenacyclononaphane-9-yl)-5-(3-chloro-2,6-difluorophenyl)pyridine 1-oxide] | 0.24 nM | 0.44 nM
6 | CCOC(=O)Nc1ccc2c(c1)NC(=O)CCCCC(c1ccc(-c3c(F)ccc(Cl)c3F)c[n+]1[O-])c1nc-2c[nH]1 (single isomer, unassigned) [Example 109-a, (Z)-5-(3-chloro-2,6-difluorophenyl)-2-(2^4-((ethoxycarbonyl)amino)-4-oxo-1^1H-3-aza-1(4,2)-imidazola-2(1,2)-benzenacyclononaphane-9-yl)pyridine 1-oxide] | 0.23 nM | 0.77 nM
7 | COC(=O)Nc1ccc2c(c1)NC(=O)CCCCC(c1ccc(-c3cc(Cl)ccc3-n3cnnn3)c[n+]1[O-])c1nc-2c[nH]1 (single isomer, unassigned) [Example 98-a, (Z)-5-(5-chloro-2-(1H-tetrazol-1-yl)phenyl)-2-(2^4-((methoxycarbonyl)amino)-4-oxo-1^1H-3-aza-1(4,2)-imidazola-2(1,2) -benzenacyclononaphane-9-yl)pyridine 1-oxide] | 0.51 nM | 0.49 nM
8 | COC(=O)Nc1ccc2c(c1)NC(=O)CCCCC(c1ccc(-c3c(F)ccc(Cl)c3F)c[n+]1[O-])c1cccc-2c1 (single isomer, unassigned) [Example 13-a, 5-(3-Chloro-2,6-difluorophenyl)-2-(2^4-((methoxycarbonyl)amino)-4-oxo-3-aza-1(1,3),2(1,2)-dibenzenacyclononaphane-9-yl)pyridine 1-oxide] | 0.36 nM | 1.55 nM
9 | COC(=O)Nc1ccc2c(c1)NC(=O)CCCCC(c1ccc(-c3c(F)cc(I)c(Cl)c3F)c[n+]1[O-])c1nc-2c[nH]1 (single isomer, unassigned) [Example 103-a, (Z)-5-(3-Chloro-2,6-difluoro-4-iodophenyl)-2-(2^4-((methoxycarbonyl)amino)-4-oxo-1^1H-3-aza-1(4,2)-imidazola-2(1,2) -benzenacyclononaphane-9-yl)pyridine 1-oxide] | 1.7 nM | 137 nM
10 | COC(=O)Nc1ccc2c(c1)NC(=O)CCCC[C@H](c1ccc(-c3cc(Cl)ccc3-n3cc(C(F)(F)F)cn3)c[n+]1[O-])c1cccc-2c1 (single isomer, unassigned) [Example 40] | 0.46 nM | 13.7 nM
11 | COC(=O)Nc1ccc2c(c1)NC(=O)CCCC[C@H](c1ccc(-c3cc(Cl)ccc3-n3cc(C#N)cn3)c[n+]1[O-])c1cccc-2c1 (single isomer, unassigned) [Example 41] | 0.19 nM | 6.27 nM
12 | O=C1CCCCC(c2ccc(-c3cc(Cl)cc(F)c3-n3cnnn3)c[n+]2[O-])c2cccc(c2)-c2cc(F)ccc2N1 (single isomer, unassigned) [Example 7-a, 5-(5-chloro-3-fluoro-2-(1H-tetrazol-1-yl)phenyl)-2-(2^5-fluoro-4-oxo-3-aza-1(1,3),2(1,2)-dibenzenacyclononaphane-9-yl)pyridine 1-oxide] | 2.4 nM | 238 nM
13 | COC(=O)Nc1ccc2c(c1)NC(=O)CCCCC(c1ccc(-c3cc(Cl)ccc3-n3cnnn3)c[n+]1[O-])c1cccc-2c1 (single isomer, unassigned) [Example 6-a, 5-(5-Chloro-2-(1H-tetrazol-1-yl)phenyl)-2-(2^4-((methoxycarbonyl)amino)-4-oxo-3-aza-1(1,3),2(1,2) -dibenzenacyclononaphane-9-yl)pyridine 1-oxide] | 0.1 nM | 0.29 nM
14 | COC(=O)Nc1cc(F)c2c(c1)NC(=O)C(C)CCCC(c1ccc(-c3c(F)ccc(Cl)c3F)c[n+]1[O-])c1cccc-2c1 (single isomer, unassigned) [Example 85-c, 5-(3-Chloro-2,6-difluorophenyl)-2-(2^6-fluoro-2^4-((methoxycarbonyl)amino)-5-methyl-4-oxo-3-aza-1(1,3),2(1,2)-dibenzenacyclononaphane-9-yl)pyridine 1-oxide] | 0.97 nM | 2.59 nM
15 | COC(=O)Nc1ccc2c(c1)NC(=O)CCCC[C@H](c1ccc(-c3cc(Cl)ccc3-n3cc(C(F)(F)F)nn3)c[n+]1[O-])c1cccc-2c1 [Example 39, (S)-5-(5-chloro-2-(4-(trifluoromethyl)-1H-1,2,3-triazol-1-yl)phenyl)-2-(2^4-((methoxycarbonyl)amino)-4-oxo-3-aza-1(1,3),2(1,2)-dibenzenacyclononaphane-9-yl)pyridine 1-oxide] | 0.26 nM | 0.81 nM
16 | COC(=O)Nc1ccc2c(c1)NC(=O)CCCCC(c1ccc(-c3cc(Cl)ccc3-n3cnnn3)cn1)c1nc-2c[nH]1 (stereo not drawn) [Example 97, methyl (Z)-(9-(5-(5-chloro-2-(1H-tetrazol-1-yl)phenyl)pyridin-2-yl)-4-oxo-1^1H-3-AZA-1(4,2)-imidazola-2(1,2)-benzenacyclononaphane-2^4-yl)carbamate] | 3.3 nM | 161 nM

The next lines start with the values.

Row | Ki [1] | Ki [2] | Structure (SMILES)
17 | 0.14 nM | 1.39 nM | C[C@@H]1CCC[C@H](c2ccc(-c3cc(Cl)ccc3-n3cc(Cl)nn3)c[n+]2[O-])c2cccc(c2)-c2c(cnn2C(F)F)NC1=O (single isomer, unassigned) [Example 166-a]
18 | 0.54 nM | 1.68 nM | COC(=O)Nc1ccc2c(c1)NC(=O)CCCC[C@H](c1ccc(-c3c(F)cccc3F)c[n+]1[O-])c1nc-2c(C)[nH]1 (single isomer, unassigned) [Example 119]
19 | 0.45 nM | 2.04 nM | COC(=O)Nc1ccc2c(c1)NC(=O)CC1CC1CC(c1ccc(-c3c(C(F)F)ccc(Cl)c3F)c[n+]1[O-])c1nc-2c(C)[nH]1 (racemic) [Example 157]
20 | 3 nM | 14.4 nM | COC(=O)Nc1ccc2c(c1)NC(=O)CC1CC1CC(c1ccc(-c3c(F)ccc(Cl)c3F)c[n+]1[O-])c1nc-2c[nH]1 (racemic) [Example 153]
21 | 0.42 nM | 1.41 nM | COC(=O)Nc1ccc2c(c1)NC(=O)CCCC[C@H](c1ccc(-c3c(C(F)(F)F)ccc(Cl)c3F)c[n+]1[O-])c1nc-2c(C)[nH]1 (single isomer, unassigned) [Example 123]
22 | 1.07 nM | 4.92 nM | COC(=O)Nc1ccc2c(c1)NC(=O)CC1CC1CC(c1ccc(-c3c(C(F)F)ccc(C)c3F)c[n+]1[O-])c1nc-2c(C)[nH]1 (racemic) [Example 158]
23 | 0.1 nM | 0.4 nM | COC(=O)Nc1ccc2c(c1)NC(=O)[C@H](C)CCC[C@H](c1ccc(-c3c(F)cccc3F)c[n+]1[O-])c1nc-2c(C)[nH]1 (single isomer, unassigned) [Example 143-b]
24 | 5.69 nM | 37.5 nM | O=C1CCCC[C@H](c2ccc(-c3cc(Cl)ccc3-c3cnco3)c[n+]2[O-])c2nc(c[nH]2)-c2cc(F)ccc2N1 (single isomer, unassigned) [Example 118]
25 | 3.8 nM | 94.2 nM | N#Cc1cnn(-c2ccc(Cl)cc2-c2ccc([C@H]3CCCCC(=O)Nc4cnn(C(F)F)c4-c4cccc3c4)[n+]([O-])c2)c1 (single isomer, unassigned) [Example 169]
26 | 0.35 nM | 22.2 nM | COC(=O)Nc1ccc2c(c1)NC(=O)CCCC[C@H](c1ccc(-c3cc(Cl)ccc3-n3cccn3)c[n+]1[O-])c1nc-2c(C)[nH]1 (single isomer, unassigned) [Example 139]
27 | 2.5 nM | 37.3 nM | COC(=O)Nc1ccc2c(c1)NC(=O)C1(CCC[C@H](c3ccc(-c4c(F)cccc4OC(F)F)c[n+]3[O-])c3nc-2c(C)[nH]3)CC1 (single isomer, unassigned) [Example 148]
